From US20060223790A1, “Modulation of Microglial by Nicotinic Medications” (University of South Florida, priority 2004, published 2006)

How the values were obtained:
APP transgenic mice = settings: cited from earlier work; for Aβ deposition: APP transgenic mice
[1] = tested on: primary cultured microglial cells; format: cell-based, mouse
p44/42 MAPK = format: cell-based, mouse
[2] = tested on: primary cultured microglial cells; format: cell-based, mouse; remark: listed apart in the source
microglia = settings: cited from earlier work

Compound: Oc1c(I)cc(Cl)c2cccnc12 [clioquinol]
- Aβ deposition (APP transgenic mice): reduced

Compound: COc1cc(/C=C/C(=O)CC(=O)/C=C/c2ccc(O)c(OC)c2)ccc1O [curcumin]
- Aβ deposition (APP transgenic mice): reduced

Compound: α-bungarotoxin
- effect on galantamine/nicotine inhibition of microglial NO release [1]: significantly attenuates
- effect on galantamine/nicotine inhibition of phosphorylation of p44/42 MAPK (p44/42 MAPK): significantly attenuated

Compound: CC(C)Cc1ccc(C(C)C(=O)O)cc1 (stereo not shown) [ibuprofen]
- Aβ deposition (APP transgenic mice): reduced

Compound: CN1CCCC1c1cccnc1 (stereo not shown) [nicotine]
- HIV-1 gp120/IFN-Υ-induced TNF-α production [2]: slight reduction
- HIV-1 gp120/IFN-Υ-induced NO release [1]: slight reduction
- LPS-induced TNF-α release (microglia): inhibit
- microglial activation induced by bacterial endotoxin (LPS) (microglia): reduced
- reduction in β-amyloid plaque (APP transgenic mice; mouse, in vivo): comparable
